The values that follow come from article PMC3336937 (2012).

The structures appear in SMILES notation.

The target of this assay is T1, KcsA (Streptomyces lividans, UniProt P0A334).
T1 sequence (P0A334 1-160): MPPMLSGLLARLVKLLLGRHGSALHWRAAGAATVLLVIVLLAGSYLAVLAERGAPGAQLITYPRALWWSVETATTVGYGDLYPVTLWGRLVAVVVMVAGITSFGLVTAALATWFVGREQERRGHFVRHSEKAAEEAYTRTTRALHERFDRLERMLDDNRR
Nature of the assay: Trp fluorescence quenching, purified reconstituted wild-type KcsA. It is filed as binding.

Consider `CCCCCCCCC(Br)C(Br)CCCCCCCC(=O)O` (stereo not shown) [BrSA, 9,10-dibromostearic acid], for which the “Trp fluorescence quenching, purified reconstituted wild-type KcsA; binding const” value was 0.67 ± 0.04.
